# Experimental data from patent US7109193B2, “Tricyclic diazepines tocolytic oxytocin receptor antagonists” (Wyeth, priority 2001, dated 2006).
# Biological target: T1, human oxytocin receptor (Homo sapiens, UniProt P30559)
# T1 construct: host or cells: CHO cells (pcDNA3.1 vector)
# T1 sequence (P30559 1-389): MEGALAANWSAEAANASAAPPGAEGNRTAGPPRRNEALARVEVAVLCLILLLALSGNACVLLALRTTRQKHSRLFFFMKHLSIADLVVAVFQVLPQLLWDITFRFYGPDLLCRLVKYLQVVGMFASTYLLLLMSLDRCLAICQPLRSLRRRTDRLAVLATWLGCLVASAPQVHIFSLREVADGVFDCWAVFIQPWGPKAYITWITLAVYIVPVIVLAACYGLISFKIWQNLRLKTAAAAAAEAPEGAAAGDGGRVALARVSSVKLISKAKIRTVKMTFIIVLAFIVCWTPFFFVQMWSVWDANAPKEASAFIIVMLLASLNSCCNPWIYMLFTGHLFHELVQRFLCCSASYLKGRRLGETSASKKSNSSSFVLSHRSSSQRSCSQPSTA
# Assay: Oxytocin binding in Chinese Hamster Ovary cell membranes expressing human oxytocin receptors
# Details: 100 nM, CHO cell membranes, [3H]oxytocin, values without parentheses, read-out: OT % inhibition @ 100% nM
row,inhibition at 0.1 µM [%],Structure (SMILES)
1,82,"Cc1cc(C(=O)N2Cc3ccc(C(=O)N4CCN(CCN5CCOCC5)CC4)n3Cc3ccccc32)ccc1-c1ccccc1C(F)(F)F [Example 216, (10-{[2-Methyl-2′-(trifluoromethyl)[1,1′-biphenyl]-4-yl]carbonyl}-10,11-dihydro-5H -pyrrolo[2,1-c][1,4]benzodiazepin-3-yl){4-[2-(4-morpholinyl)ethyl]-1-piperazinyl}methanone]"
2,71,"COc1ccccc1-c1ccc(C(=O)N2Cc3ccc(C(=O)NCCC4CCCN4C)n3Cc3ccccc32)cc1C (stereo not shown) [Example 162, 10-[(2′-Methoxy-2-methyl[1,1′-biphenyl]-4-yl)carbonyl]-N-[2-(1-methyl-2-pyrrolidinyl)ethyl]-10,11-dihydro-5H-pyrrolo[2,1-c][1,4]benzodiazepine-3-carboxamide]"
3,91,"COc1cc(C(=O)N2Cc3ccc(C(=O)N(C)C4CCN(C)C4)n3Cc3ccccc32)ccc1-c1cccc2ccccc12 (stereo not shown) [Example 192, 10-[3-Methoxy-4-(1-naphthyl)benzoyl]-N-methyl-N-(1-methyl-3-pyrrolidinyl)-10,11-dihydro-5H-pyrrolo[2,1-c][1,4]benzodiazepine-3-carboxamide]"
4,82,"Cc1ccccc1-c1ccc(C(=O)N2Cc3ccc(C(=O)NCCC4CCCN4C)n3Cc3ccccc32)cc1C (stereo not shown) [Example 163, 10-[(2,2′-Dimethyl[1,1′-biphenyl]-4-yl)carbonyl]-N-[2-(1-methyl-2-pyrrolidinyl)ethyl]-10,11-dihydro-5H-pyrrolo[2,1-c][1,4]benzodiazepine-3-carboxamide]"
5,70,"COc1cc(C(=O)N2Cc3ccc(C(=O)N(C)C4CCN(C)CC4)n3Cc3ccccc32)ccc1-c1cccc2ccccc12 [Example 182, 10-[3-Methoxy-4-(1-naphthyl)benzoyl]-N-methyl-N-(1-methyl-4-piperidinyl)-10,11-dihydro-5H-pyrrolo[2,1-c][1,4]benzodiazepine-3-carboxamide]"
6,64,"COc1cccc(-c2ccc(C(=O)N3Cc4ccc(C(=O)N5CCN(C(C)C)CC5)n4Cc4ccccc43)cc2C)c1 [Example 235, (4-Isopropyl-1-piperazinyl){10-[(3′-methoxy-2-methyl[1,1′-biphenyl]-4-yl)carbonyl]-10,11-dihydro-5H-pyrrolo[2,1-c][1,4]benzodiazepin-3-yl}methanone]"
7,87,"C=CCN1CCN(C(=O)c2ccc3n2Cc2ccccc2N(C(=O)c2ccc(-c4ccccc4C)c(OC)c2)C3)CC1 [Example 225, (4-Allyl-1-piperazinyl){10-[(2-methoxy-2′-methyl[1,1′-biphenyl]-4-yl)carbonyl]-10,11-dihydro-5H-pyrrolo[2,1-c][1,4]benzodiazepin-3-yl}methanone]"
8,38,"COc1cc(C(=O)N2Cc3ccc(C(=O)NCCN4CCCCC4)n3Cc3ccccc32)ccc1-c1cccc2ccccc12 [Example 157, 10-[3-Methoxy-4-(1-naphthyl)benzoyl]-N-[2-(1-piperidinyl)ethyl]-10,11-dihydro-5H-pyrrolo[2,1-c][1,4]benzodiazepine-3-carboxamide]"

# More lines, now with the values behind:
row,Structure (SMILES),inhibition at 0.1 µM [%]
1,"COc1cccc(-c2ccc(C(=O)N3Cc4ccc(C(=O)N5CCN(CCN6CCOCC6)CC5)n4Cc4ccccc43)cc2C)c1 [Example 208, {10-[(3′-Methoxy-2-methyl[1,1′-biphenyl]-4-yl)carbonyl]-10,11-dihydro-5H-pyrrolo[2,1-c][1,4]benzodiazepin-3-yl}{4-[2-(4-morpholinyl)ethyl]-1-piperazinyl}methanone]",81
2,"Cc1cc(C(=O)N2Cc3ccc(C(=O)N(C)C4CCN(C)C4)n3Cc3ccccc32)ccc1-c1ccccc1C(F)(F)F (stereo not shown) [Example 194, N-Methyl-N-(1-methyl-3-pyrrolidinyl)-10-{[2-methyl-2′-(trifluoromethyl)[1,1′-biphenyl]-4-yl]carbonyl}-10,11-dihydro-5H-pyrrolo[2,1-c][1,4]benzodiazepine-3-carboxamide]",96
3,"COc1ccccc1-c1ccc(C(=O)N2Cc3ccc(C(=O)NCCC4CCCN4C)n3Cc3ccccc32)cc1 (stereo not shown) [Example 165, 10-[(2′-Methoxy[1,1′-biphenyl]-4-yl)carbonyl]-N-[2-(1-methyl-2-pyrrolidinyl)ethyl]-10,11-dihydro-5H-pyrrolo[2,1-c][1,4]benzodiazepine-3-carboxamide]",64
4,"COc1cccc(-c2cc(OC)c(C(=O)N3Cc4ccc(C(=O)N5CCN(C(C)C)CC5)n4Cc4ccccc43)cc2Cl)c1 [Example 239, {10-[(6-Chloro-3,3′-dimethoxy[1,1′-biphenyl]-4-yl)carbonyl]-10,11-dihydro-5H-pyrrolo[2,1-c][1,4]benzodiazepin-3-yl}(4-isopropyl-1-piperazinyl)methanone]",61
5,"COc1ccccc1-c1ccc(C(=O)N2Cc3ccc(C(=O)N4CCN(C(C)C)CC4)n3Cc3ccccc32)cc1C [Example 232, (4-Isopropyl-1-piperazinyl){10-[(2′-methoxy-2-methyl[1,1′-biphenyl]-4-yl)carbonyl]-10,11-dihydro-5H-pyrrolo[2,1-c][1,4]benzodiazepin-3-yl}methanone]",81
6,"COc1ccccc1-c1ccc(C(=O)N2Cc3ccc(C(=O)N4CCN(CCN5CCOCC5)CC4)n3Cc3ccccc32)cc1OC [Example 214, {10-[(2,2′-Dimethoxy[1,1′-biphenyl]-4-yl)carbonyl]-10,11-dihydro-5H-pyrrolo[2,1-c][1,4]benzodiazepin-3-yl}{4-[2-(4-morpholinyl)ethyl]-1-piperazinyl}methanone]",64
7,"COc1cc(-c2ccccc2C)c(Cl)cc1C(=O)N1Cc2ccc(C(=O)NCCC3CCCN3C)n2Cc2ccccc21 (stereo not shown) [Example 168, 10-[(6-Chloro-3-methoxy-2′-methyl[1,1′-biphenyl]-4-yl)carbonyl]-N-[2-(1-methyl-2-pyrrolidinyl)ethyl]-10,11-dihydro-5H-pyrrolo[2,1-c][1,4]benzodiazepine-3-carboxamide]",52
8,"COc1cccc(-c2ccc(C(=O)N3Cc4ccc(C(=O)N(C)C5CCN(C)C5)n4Cc4ccccc43)cc2C)c1 (stereo not shown) [Example 186, 10-[(3′-Methoxy-2-methyl[1,1′-biphenyl]-4-yl)carbonyl]-N-methyl-N-(1-methyl-3-pyrrolidinyl)-10,11-dihydro-5H-pyrrolo[2,1-c][1,4]benzodiazepine-3-carboxamide]",97
9,"CN(C)CCN1CCN(C(=O)c2ccc3n2Cc2ccccc2N(C(=O)c2ccc(-c4cccc5ccccc45)cc2Cl)C3)CC1 [Example 205, {10-[2-Chloro-4-(1-naphthyl)benzoyl]-10,11-dihydro-5H-pyrrolo[2,1-c][1,4]benzodiazepin-3-yl}{4-[2-(dimethylamino)ethyl]-1-piperazinyl}methanone]",24
10,"COc1cccc(-c2cc(OC)c(C(=O)N3Cc4ccc(C(=O)NCCN5CCCCC5)n4Cc4ccccc43)cc2Cl)c1 [Example 156, 10-[(6-Chloro-3,3′-dimethoxy[1,1′-biphenyl]-4-yl)carbonyl]-N-[2-(1-piperidinyl)ethyl]-10,11-dihydro-5H-pyrrolo[2,1-c][1,4]benzodiazepine-3-carboxamide]",30
11,"C=CCN1CCN(C(=O)c2ccc3n2Cc2ccccc2N(C(=O)c2ccc(-c4ccccc4C(F)(F)F)c(C)c2)C3)CC1 [Example 230, (4-Allyl-1-piperazinyl)(10-{[2-methyl-2′-(trifluoromethyl)[1,1′-biphenyl]-4-yl]carbonyl}-10,11-dihydro-5H-pyrrolo[2,1-c][1,4]benzodiazepin-3-yl)methanone]",67
